In patent US20200230126A1, “TARGETED THERAPEUTICS” (TARVEDA THERAPEUTICS, INC., priority 2017, published 2020):

Assays:
[1] = Head-to-head in-use test, 5% Mannitol dosing solution in IV bag, syringe and IV line with rocking; type: physicochemical
Protocol: A head-to-head in-use test of the SDC-TRAP-0063 Sodium 0.9% Sodium Chloride and 5% Mannitol dosing solutions was conducted. This study was intended to directly compare the two based on the specific clinical use direction for each diluent. In this study, the respective IV bags, syringes and IV lines were subjected to a rocking motion during the hold periods to mimic a worst case scenario for agitation of the dosing solution.
The 5% Mannitol dosing solution was tested in a syringe and IV line as designed for use in the clinic with the addition of continuous rocking to simulate a worst case for agitation of the samples (Table 6). This dosing solution was tested at the limits of intended concentrations of 3 mg/mL and 12 mg/mL of SDC-TRAP-0063 Sodium and with a 2 hour hold period in the IV bag, a 6 hour hold period in the syringe and IV line and a 2-hour simulated infusion to exceed the planned clinical timeframes.

[2] = Particulate formation in dosing solutions using 0.9% Sodium Chloride, 5% Mannitol and 5% Dextrose adjusted to the low USP pH limits, with rocking (appearance, pH, HPLC recovery); type: physicochemical; set-up: key to appearance: Conforms = clear and essentially free of visible particles
Protocol: A study was conducted with 0.6 mg/mL and 2.4 mg/mL solutions of SDC-TRAP-0063 Sodium using one of three diluents; 0.9% Sodium Chloride as a positive control, and 5% Dextrose and 5% Mannitol as potential new diluents (Table 2). Each diluent was prepared at the lower pH limit of USP to test a worst-case scenario for solubility (the starting pH was 4.5 for 0.9% Sodium Chloride and 5% Mannitol and 3.2 for 5% Dextrose). The SDC-TRAP-0063 Sodium dosing solutions were prepared in glass vials and then placed on a rocker. […]

CCc1c2c(nc3ccc(OC(=O)N4CCC(CCn5ccc6cc(-n7c(O)nnc7-c7cc(C(C)C)c(O)cc7O)ccc65)CC4)cc13)-c1cc([C@@](O)(CC)C(=O)[O-])c(CO)c(=O)n1C2.[Na+] [SDC-TRAP-0063 Sodium, Sodium (S)-2-(2-((4-(2-(5-(3-(2,4-dihydroxy-5-isopropylphenyl)-5-hydroxy-4H-1,2,4-triazol-4-yl)-1H-indol-1-yl)ethyl)piperidine-1-carbonyl)oxy)-12-ethyl-8-(hydroxymethyl)-9-oxo-9,11-dihydroindolizino[1,2-b]quinolin-7-yl)-2-hydroxybutanoate]
precipitation ([1]; 3 mg/mL and 12 mg/mL, all time points, continuous rocking): no precipitation was observed at any time point
Recovery of SDC-TRAP-0063 Sodium (Calculated vs. Initial concentration) ([1]; 3 mg/mL, Bulk solution, 8 hours (6 + 2 infusion)): 98.0%
Recovery of SDC-TRAP-0063 Sodium (Calculated vs. Initial concentration) ([1]; 3 mg/mL, IV bag, 0 hours): 100.0%
Recovery of SDC-TRAP-0063 Sodium (Calculated vs. Initial concentration) ([1]; 3 mg/mL, IV bag, 2 hours): 102.5%
Recovery of SDC-TRAP-0063 Sodium (Calculated vs. Initial concentration) ([1]; 3 mg/mL, IV line (infusion end), 8 hours (6 + 2 infusion)): 98.7%
Recovery of SDC-TRAP-0063 Sodium (Calculated vs. Initial concentration) ([1]; 3 mg/mL, IV line (infusion start), 6 hours, low volume in syringe, complete sample not obtained): 93.5%^1
Recovery of SDC-TRAP-0063 Sodium (Calculated vs. Initial concentration) ([1]; 3 mg/mL, IV line, 0 hours): 97.2%
Recovery of SDC-TRAP-0063 Sodium (Calculated vs. Initial concentration) ([1]; 12 mg/mL, Bulk solution, 8 hours (6 + 2 infusion)): 105.4%
Recovery of SDC-TRAP-0063 Sodium (Calculated vs. Initial concentration) ([1]; 12 mg/mL, IV bag, 0 hours): 100.0%
Recovery of SDC-TRAP-0063 Sodium (Calculated vs. Initial concentration) ([1]; 12 mg/mL, IV bag, 2 hours): 103.9%
Recovery of SDC-TRAP-0063 Sodium (Calculated vs. Initial concentration) ([1]; 12 mg/mL, IV line (infusion end), 8 hours (6 + 2 infusion)): 104.3%
Recovery of SDC-TRAP-0063 Sodium (Calculated vs. Initial concentration) ([1]; 12 mg/mL, IV line (infusion start), 6 hours): 101.6%
Recovery of SDC-TRAP-0063 Sodium (Calculated vs. Initial concentration) ([1]; 12 mg/mL, IV line, 0 hours): 103.6%
pH ([2]; 0.9% Sodium Chloride, pH 4.5, 0.6 mg/mL): 8.7
appearance ([2]; 0.9% Sodium Chloride, pH 4.5, 0.6 mg/mL, 0 hours): Conforms^1
appearance ([2]; 0.9% Sodium Chloride, pH 4.5, 0.6 mg/mL, 6 hours): Precipitate
appearance ([2]; 0.9% Sodium Chloride, pH 4.5, 0.6 mg/mL, 24 hours): Precipitate
pH ([2]; 0.9% Sodium Chloride, pH 4.5, 2.4 mg/mL): 9.4
appearance ([2]; 0.9% Sodium Chloride, pH 4.5, 2.4 mg/mL, 0 hours): Conforms^1
appearance ([2]; 0.9% Sodium Chloride, pH 4.5, 2.4 mg/mL, 6 hours): Precipitate
appearance ([2]; 0.9% Sodium Chloride, pH 4.5, 2.4 mg/mL, 24 hours): Precipitate
pH ([2]; 5% Dextrose, pH 3.2, 0.6 mg/mL): 7.5
appearance ([2]; 5% Dextrose, pH 3.2, 0.6 mg/mL, 0 hours): Conforms^1
appearance ([2]; 5% Dextrose, pH 3.2, 0.6 mg/mL, 6 hours): Precipitate
appearance ([2]; 5% Dextrose, pH 3.2, 0.6 mg/mL, 24 hours): Precipitate
pH ([2]; 5% Dextrose, pH 3.2, 2.4 mg/mL): 9.1
appearance ([2]; 5% Dextrose, pH 3.2, 2.4 mg/mL, 0 hours): Conforms^1
appearance ([2]; 5% Dextrose, pH 3.2, 2.4 mg/mL, 6 hours): Conforms^1
appearance ([2]; 5% Dextrose, pH 3.2, 2.4 mg/mL, 24 hours): Precipitate
pH ([2]; 5% Mannitol, pH 4.5, 0.6 mg/mL): 8.6
appearance ([2]; 5% Mannitol, pH 4.5, 0.6 mg/mL, 0 hours): Conforms^1
appearance ([2]; 5% Mannitol, pH 4.5, 0.6 mg/mL, 6 hours): Precipitate
appearance ([2]; 5% Mannitol, pH 4.5, 0.6 mg/mL, 24 hours): Precipitate
pH ([2]; 5% Mannitol, pH 4.5, 2.4 mg/mL): 9.8
appearance ([2]; 5% Mannitol, pH 4.5, 2.4 mg/mL, 0 hours): Conforms^1
appearance ([2]; 5% Mannitol, pH 4.5, 2.4 mg/mL, 6 hours): Conforms^1
appearance ([2]; 5% Mannitol, pH 4.5, 2.4 mg/mL, 24 hours): Conforms^1
